Test results published in patent publication US8791132B2, “Compounds and methods for treatment of hypertension” (Medivation Technologies, Inc., priority 2011, dated 2014).
Where two headings read alike, the source gives them in different places.

Experiments:
[1] = target: T1, human recombinant adrenergic α2A receptor (Homo sapiens, UniProt P08913); experiment: Radioligand binding, adrenergic α2A ([3H]MK-912); settings: for Percentage inhibition of ligand binding, Adrenergic α2A (0.1 μM) / Percentage inhibition of ligand binding, Adrenergic α2A: 0.1 µM
T1 construct: expressed in transfected cells; host or cells: insect Sf9 cells
T1 sequence (P08913 1-465): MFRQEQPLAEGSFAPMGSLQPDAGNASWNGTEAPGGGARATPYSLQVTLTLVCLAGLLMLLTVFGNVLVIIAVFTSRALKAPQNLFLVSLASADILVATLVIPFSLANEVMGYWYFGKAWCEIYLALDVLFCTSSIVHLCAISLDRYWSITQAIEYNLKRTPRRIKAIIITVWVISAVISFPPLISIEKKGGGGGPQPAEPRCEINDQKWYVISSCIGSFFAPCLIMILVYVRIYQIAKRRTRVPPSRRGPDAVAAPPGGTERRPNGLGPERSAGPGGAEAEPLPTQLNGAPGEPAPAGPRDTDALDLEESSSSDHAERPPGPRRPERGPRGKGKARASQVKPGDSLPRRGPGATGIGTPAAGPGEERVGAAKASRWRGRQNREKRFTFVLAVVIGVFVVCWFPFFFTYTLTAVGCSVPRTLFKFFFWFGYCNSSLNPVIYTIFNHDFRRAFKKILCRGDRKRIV
Outline: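 In 50 mM Tris-HCl (pH 7.4) containing 12.5 mM MgCl2 and 2 mM EDTA, Sf9-expressed receptor was exposed to test compound plus 1 nM [3H]MK-912 at 25 °C for 60 min. Specific binding, corrected using 10 μM WB-4101, was quantified by filtration and counting and expressed as percent inhibition.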

[2] = target: T2, rat adrenergic α1B receptor (Rattus norvegicus, UniProt P15823); experiment: Radioligand binding, adrenergic α1B ([3H]Prazosin); settings: for Percentage inhibition of ligand binding, Adrenergic α1B (0.1 μM) / Percentage inhibition of ligand binding, Adrenergic α1B: 0.1 µM
T2 construct: rat adrenergic α1B receptor obtained from Wistar Rat liver; from tissue; host or cells: Wistar rat liver
T2 sequence (P15823 1-515): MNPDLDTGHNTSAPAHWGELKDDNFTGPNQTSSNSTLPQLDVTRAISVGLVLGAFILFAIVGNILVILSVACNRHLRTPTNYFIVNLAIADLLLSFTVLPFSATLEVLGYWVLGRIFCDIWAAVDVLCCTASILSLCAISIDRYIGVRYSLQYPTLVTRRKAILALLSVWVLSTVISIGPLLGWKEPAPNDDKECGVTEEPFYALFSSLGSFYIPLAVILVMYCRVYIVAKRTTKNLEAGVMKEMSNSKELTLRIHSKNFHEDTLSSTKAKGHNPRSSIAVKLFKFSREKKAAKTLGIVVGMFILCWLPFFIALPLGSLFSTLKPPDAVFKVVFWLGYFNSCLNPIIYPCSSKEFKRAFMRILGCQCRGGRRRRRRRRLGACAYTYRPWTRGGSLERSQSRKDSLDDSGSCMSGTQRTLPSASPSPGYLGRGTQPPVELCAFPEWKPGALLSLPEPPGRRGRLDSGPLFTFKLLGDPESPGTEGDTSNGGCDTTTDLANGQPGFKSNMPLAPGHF
Outline: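 Incubation ran 60 min at 25 °C in Tris-HCl buffer (50 mM, pH 7.4, 0.5 mM EDTA) with Wistar rat liver α1B receptor. 10 μM phentolamine set non-specific binding.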

[3] = target: T3, human recombinant adrenergic α2B receptor (Homo sapiens, UniProt P18089); experiment: Radioligand binding, adrenergic α2B ([3H]Rauwolscine); settings: for Percentage inhibition of ligand binding, Adrenergic α2B (0.03 μM) / Percentage inhibition of ligand binding, Adrenergic α2B: 0.03 µM
T3 construct: expressed in transfected cells; host or cells: CHO-K1
T3 sequence (P18089 1-450): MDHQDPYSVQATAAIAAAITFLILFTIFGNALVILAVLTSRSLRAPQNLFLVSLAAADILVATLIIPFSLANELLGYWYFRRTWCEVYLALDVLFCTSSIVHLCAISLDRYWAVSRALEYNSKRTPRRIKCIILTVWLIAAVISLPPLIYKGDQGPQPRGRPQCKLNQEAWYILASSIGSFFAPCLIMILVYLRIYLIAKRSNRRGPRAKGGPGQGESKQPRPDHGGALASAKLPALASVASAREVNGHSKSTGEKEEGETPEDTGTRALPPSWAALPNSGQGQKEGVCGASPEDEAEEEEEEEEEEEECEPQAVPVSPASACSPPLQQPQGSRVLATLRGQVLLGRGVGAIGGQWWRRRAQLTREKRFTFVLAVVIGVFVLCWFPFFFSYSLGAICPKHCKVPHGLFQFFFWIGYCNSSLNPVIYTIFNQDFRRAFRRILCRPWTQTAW
Outline: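 Receptor expressed in CHO-K1 cells, assayed in 50 mM Tris-HCl pH 7.4 with 12.5 mM MgCl2, 1 mM EDTA and 0.2% BSA. Compounds were incubated with 2.5 nM [3H]Rauwolscine for 60 min at 25° C; 10 μM Prazosin defined non-specific binding. Filter counting gave percent inhibition of specific binding.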

[4] = 0.1 μM compound, read-out: Percentage inhibition of ligand binding, Adrenergic α2A
[5] = 0.1 μM compound, read-out: Percentage inhibition of ligand binding, Adrenergic α1B
[6] = 0.03 μM compound, read-out: Percentage inhibition of ligand binding, Adrenergic α2B
[7] = compound at 0.1 μM, [3H]MK-912, repeat datapoints each shown
[8] = compound at 0.1 μM, [3H]Prazosin, repeat datapoints each shown
[9] = compound at 0.03 μM, [3H]Rauwolscine, repeat datapoints each shown
[10] = read-out: Percentage inhibition of ligand binding, Adrenergic α1B (0.1 μM), compound at 0.1 μM, [3H]Prazosin, repeat datapoints each shown
[11] = read-out: Percentage inhibition of ligand binding, Adrenergic α2B (0.03 μM), compound at 0.03 μM, [3H]Rauwolscine, repeat datapoints each shown
[12] = compound at 0.1 μM, [3H]MK-912, repeat assays, each datapoint shown, read-out: Percentage inhibition of ligand binding, Adrenergic α2A
[13] = compound at 0.1 μM, [3H]Prazosin, repeat assays, each datapoint shown, read-out: Percentage inhibition of ligand binding, Adrenergic α1B
[14] = read-out: Percentage inhibition of ligand binding, Adrenergic α2A (0.1 μM), compound at 0.1 μM, [3H]MK-912, repeat datapoints each shown
[15] = compound at 0.1 μM, [3H]MK-912, repeat assays, each datapoint shown
[16] = compound at 0.1 μM, [3H]Prazosin, repeat assays, each datapoint shown
[17] = compound at 0.03 μM, [3H]Rauwolscine, repeat assays, each datapoint shown

## CN1CCc2c(c3cc(CO)ccc3n2CC(O)c2ccncc2)C1 (stereo not drawn) [II-60, 2-(8-hydroxymethyl-2-methyl-1,2,3,4-tetrahydro-pyrido[4,3-b]indol-5-yl)-1-pyridin-4-yl-ethanol]
[1]; [4]
  inhibition at 0.1 µM: 9%
[2]; [5]
  inhibition at 0.1 µM: 11%
[3]; [6]
  inhibition at 0.03 µM: 54%

## Cc1cc(C)c2c(c1)c1c(n2CC(O)c2ccncc2)CCN2CCCC12 (single isomer, unassigned) [II-125a, 2-(8,10-dimethyl-2,3,5,6-tetrahydro-1H-indolizino[7,8-b]indol-7(11cH)-yl)-1-(pyridin-4-yl)ethanol]
[1]; [7]
  Percentage inhibition of ligand binding, Adrenergic α2A (0.1 μM): 62%
[2]; [8]
  Percentage inhibition of ligand binding, Adrenergic α1B (0.1 μM): 92%
[3]; [9]
  Percentage inhibition of ligand binding, Adrenergic α2B (0.03 μM): 100%

## Cc1ccc2c(n1)c1c(n2CC(C)(O)c2cccnc2)CCN2CCCC12 (stereo not drawn) [II-17]
[1]; [4]
  inhibition at 0.1 µM: 4%
[2]; [5]
  inhibition at 0.1 µM: 8%
[3]; [6]
  inhibition at 0.03 µM: 7%

## Cc1ccc2c(c1)c1c(n2CC(C)(O)c2cnccn2)CCN2CCCC12 (single isomer, unassigned) [176b]
[1]; [7]
  Percentage inhibition of ligand binding, Adrenergic α2A (0.1 μM): 12%
[2]; [8]
  Percentage inhibition of ligand binding, Adrenergic α1B (0.1 μM): 41%
[3]; [9]
  Percentage inhibition of ligand binding, Adrenergic α2B (0.03 μM): 67%

## Cc1ccc2c(c1)c1c(n2CC(C)(O)c2cccnc2)C(c2ccccc2)N(C)CC1 (stereo not drawn) [II-112a, 1-(2,6-dimethyl-1-phenyl-1,2,3,4-tetrahydro-β-carbolin-9-yl)-2-pyridin-3-yl-propan-2-ol]
[1]; [7]
  Percentage inhibition of ligand binding, Adrenergic α2A (0.1 μM): 10%
[2]; [10]
  inhibition at 0.1 µM: 5%
[3]; [11]
  inhibition at 0.03 µM: 36%

## CC(O)c1ccc2c(c1)c1c(n2CC(O)c2ccncc2)CCN(C)C1 (stereo not drawn) [compound 70]
[1]; [12]
  inhibition at 0.1 µM: 10%
[2]; [13]
  inhibition at 0.1 µM: 8%
[3]; compound at 0.03 μM, [3H]Rauwolscine, repeat assays, each datapoint shown, read-out: Percentage inhibition of ligand binding, Adrenergic α2B
  inhibition at 0.03 µM: 26%

## Cc1cnc2c(c1)c1c(n2CCc2cccnc2)CCN2CCCC12 (stereo not drawn) [134a, 9-methyl-6-(2-pyridin-3-yl-ethyl)-2,3,4,5,6,10c-hexahydro-1H-3a,6,7-triaza-cyclopenta[c]fluorene]
[1]; [14]
  inhibition at 0.1 µM: 4%
[2]; [10]
  inhibition at 0.1 µM: 27%
[3]; [11]
  inhibition at 0.03 µM: 42%

## Cc1ccc(CCn2c3c(c4c(Cl)ccc(Cl)c42)CCN(C)CC3)cn1 [II-246, 7,10-dichloro-1,2,3,4,5,6-hexahydro-3-methyl-6-(2-(6-methylpyridin-3-yl)ethyl)azepino [4,5-b]indole]
[1]; [14]
  inhibition at 0.1 µM: 47%
[2]; [10]
  inhibition at 0.1 µM: -2%
[3]; [11]
  inhibition at 0.03 µM: 5%

## COc1ccc(C(O)Cn2c3c(c4cc(C)ccc42)CN(C)CC3)cn1 (single isomer, unassigned) [51a, 2-(2,8-dimethyl-1,2,3,4-tetrahydro-pyrido[4,3-b]indol-5-yl)-1-(6-methoxy-pyridin-3-yl)-ethanol]
[1]; [15]
  Percentage inhibition of ligand binding, Adrenergic α2A: 11%
[2]; [16]
  Percentage inhibition of ligand binding, Adrenergic α1B: 8%
[3]; [17]
  Percentage inhibition of ligand binding, Adrenergic α2B: 21%

## Cc1ccc2c(c1)c1c(n2CC(O)c2ccncc2)CC2CCCCN2C1 (racemic) [75b]
[1]; [15]
  Percentage inhibition of ligand binding, Adrenergic α2A: 5%
[2]; [16]
  Percentage inhibition of ligand binding, Adrenergic α1B: 16%
[3]; [17]
  Percentage inhibition of ligand binding, Adrenergic α2B: 43%

## Cc1ccc2c(c1)c1c(n2CC(OCC(=O)O)c2ccncc2)CCN2CCCC12 (stereo not drawn) [V-15, 2-(2-(10-methyl-2,3,5,6-tetrahydro-1H-indolizino[7,8-b]indol-7(11cH)-yl)-1-(pyridin-4-yl)ethoxy)acetic acid]
[1]; [14]
  inhibition at 0.1 µM: 7%
[2]; [10]
  inhibition at 0.1 µM: 4%
[3]; [11]
  inhibition at 0.03 µM: 20%

## Cc1ccc2c(c1)c1c(n2CC(O)c2cccnc2)CCN(CCO)C1 (single isomer, unassigned) [21b]
[1]; [15]
  Percentage inhibition of ligand binding, Adrenergic α2A: −3%
[2]; [16]
  Percentage inhibition of ligand binding, Adrenergic α1B: −2%
[3]; [17]
  Percentage inhibition of ligand binding, Adrenergic α2B: 1%

## Cc1cnc2c(c1)c1c(n2CC(C)(O)c2ccc(C(F)(F)F)nc2)CCN(C)C1 (single isomer, unassigned) [II-108a]
[1]; [7]
  Percentage inhibition of ligand binding, Adrenergic α2A (0.1 μM): −2%
[2]; [8]
  Percentage inhibition of ligand binding, Adrenergic α1B (0.1 μM): 13%
[3]; [9]
  Percentage inhibition of ligand binding, Adrenergic α2B (0.03 μM): 27%

## CC1Cc2c(c3cc(Cl)ccc3n2CC(C)(O)c2cccnc2)CN1C (single isomer, unassigned) [II-147c, 1-(8-chloro-2,3-dimethyl-3,4-dihydro-1H-pyrido[4,3-b]indol-5(2H)-yl)-2-(pyridin-3-yl)propan-2-ol]
[1]; [7]
  Percentage inhibition of ligand binding, Adrenergic α2A (0.1 μM): 3%
[2]; [8]
  Percentage inhibition of ligand binding, Adrenergic α1B (0.1 μM): 7%
[3]; [9]
  Percentage inhibition of ligand binding, Adrenergic α2B (0.03 μM): 38%

## Cc1ccc2c(c1)c1c(n2CC(O)c2ccc(F)cc2)CCN2CCCC12 (single isomer, unassigned) [II-120b, 1-(4-fluoro-phenyl)-2-(9-methyl-1,2,3,4,5,10c-hexahydro-3a,6-diaza-cyclopenta[c]fluoren-6-yl)-ethanol]
[1]; [7]
  Percentage inhibition of ligand binding, Adrenergic α2A (0.1 μM): 98%
[2]; [8]
  Percentage inhibition of ligand binding, Adrenergic α1B (0.1 μM): 100%
[3]; [9]
  Percentage inhibition of ligand binding, Adrenergic α2B (0.03 μM): 98%

## CN1CCc2c(c3cc(C(F)(F)F)ccc3n2CC(O)c2cccnc2)C1 (single isomer, unassigned) [59a]
[1]; [12]
  inhibition at 0.1 µM: 18%
[2]; [13]
  inhibition at 0.1 µM: 11%
[3]; [17]
  Percentage inhibition of ligand binding, Adrenergic α2B: 15%

## CN1CCc2c(c3cc(Cl)ccc3n2CCc2ccc(F)cc2)C1 [compound 217]
[1]; [14]
  inhibition at 0.1 µM: 74%
[2]; [10]
  inhibition at 0.1 µM: 62%
[3]; read-out: Percentage inhibition of ligand binding, Adrenergic α2B (0.1 μM), compound at 0.1 μM, [3H]Rauwolscine, repeat datapoints each shown
  inhibition at 0.1 µM: 102%
